{"source": "patent EP1832586A1", "about": "“Thiazole-piperidine derivatives in treatment of diseases of liver and the pancreas” (Oridis Biomed Forschungs- und Entwicklungs GmbH, priority 2006, dated 2007)", "format_in_all_cases": "cell-based", "key": {"[1]": {"tested_on": "HeLa", "assay": "CellTiter-Glo luminescent cell viability (proliferation) assay, HeLa", "details": "Hela (human ovarian carcinoma [sic]) proliferation, 48 hours incubation, 10% FCS", "description": "(§1) To practically assess the impact of the thiazole-piperidine derivatives, e.g. derivatives of piperidinyl-thiazole carboxylic acid and/or piperidinyl thiazole carboxamide, in the treatment and/or prevention of diseases according to the invention, the inhibition of cell proliferation is determined by using a luminescent cell viability assay (CellTiter-Glo®; Promega, Madison, USA). The assay is based on the relation that the ATP content is directly proportional to the number of cells present in the culture. The CellTiter-Glo® assay is performed to measure the proliferation rate of human hepatoma (HuH7, PLC/PRF/5, Hep3B, SK-Hep1), human hepatoblastoma (HepG2), human colon carcinoma (CX-2), human breast cancer (SK-Br-3), human ovarian carcinoma (HeLa) and human pancreatic carcinoma (DAN-G) cell lines. […] In particular, the compound according to formula (1) wherein R^1 is 4-isopropoxycarbonylphenyl, R^2 is 3-indolylmethyl, R^3 is hydrogen, R^4 is hydrogen, n is zero, A is a single bond, B is carbonyl, and wherein the residue R^1NR^3CO is connected to the carbon atom bound to nitrogen of the thiazole ring (compound no. XI in Table 1) inhibits proliferation of the human cell lines HepG2 and Hep3B with 10.8 and 3.5 µM, respectively.\n(§2) To determine the inhibition of cell proliferation a luminescent cell viability assay (CellTiter-Glo®; Promega, Madison, USA) is implemented. The assay is based on the relation that the ATP content is directly proportional to the number of cells present in the culture (Technical Bulletin No. 228 \"CellTiter-Glo® Luminescent Cell viability Assay\", Revised 2/04. Promeg, Madison, USA). The CellTiter-Glo® assay is performed to measure the proliferation rate of human hepatoma (HuH7, PLC/PRF/5, Hep3B, SK-Hep1), human hepatoblastoma (HepG2), human colon carcinoma (CX-2), human breast cancer (SK-Br-3), human ovarian carcinoma (HeLa) and human pancreatic carcinoma (DAN-G) cell lines. 3000 viable cells (viability ≥ 90%) are seeded in opaque-walled 96-well plates and incubated for 24 hours in DMEM, supplemented with 2 mM glutamin. Cell proliferation is stimulated by addition of FCS to a final concentration of 10% (v/v). Simultaneously the compounds (see Table 1 and 2) are added in a concentration range of 0 to 20 µM. Triplicates are measured for each concentration. Cells and compounds (see Table 1 and 2) are incubated for a period of 48 hours in a volume of 140 µl cell culture medium (10% (v/v) FCS, 2 mM Glutamin, DMEM). The compounds according to the invention are dissolved in 60% to 100% (v/v) DMSO at a concentration of 2 mM. The final DMSO concentration under assay conditions never exceeds 1% (v/v). Throughout the assay cells are kept in a humidified incubator (95% rH) at 37°C and 5% CO2.\n(§3) The final cell number is determined after 48 hour of incubation. Therefore 140 µl CellTiter-Glo®Reagent is added in each well. The contents are mixed on an orbital shaker for 2 minutes at room temperature. After subsequent incubation for additional 10 minutes at room temperature the luminescence signal is recorded within 30 min. EC50 values are calculated using the four-parametric Hill equation (Sigma Plot). Control values are: • 1) 10% (v/v) FCS, 2 mM glutamin, DMEM -> maximum cell number • 2) 2 mM glutamin, DMEM -> initial cell number"}, "[2]": {"tested_on": "HuH7", "assay": "CellTiter-Glo luminescent cell viability (proliferation) assay, HuH7", "details": "inhibition of HuH7 (human hepatoma) proliferation, 48 hours incubation, 10% FCS", "description": "as §1, §2, §3"}, "[3]": {"tested_on": "DAN-G", "assay": "CellTiter-Glo luminescent cell viability (proliferation) assay, DAN-G", "details": "DAN-G (human pancreatic carcinoma) proliferation, 48 hours incubation, 10% FCS", "description": "as §1, §2, §3"}, "[4]": {"tested_on": "CX-2", "assay": "CellTiter-Glo luminescent cell viability (proliferation) assay, CX-2", "details": "CX-2 (human colon carcinoma) proliferation, 48 hours incubation, 10% FCS", "description": "as §1, §2, §3"}, "[5]": {"tested_on": "SK-Br-3", "assay": "CellTiter-Glo luminescent cell viability (proliferation) assay, SK-Br-3", "details": "Sk-Br-3 (human breast cancer) proliferation, 48 hours incubation, 10% FCS", "description": "as §1, §2, §3"}}}
{"smiles": "O=C(Nc1ccc(F)c(F)c1)c1csc(C2CCN(C(=O)CC3C=Nc4ccccc43)CC2)n1", "note": "(stereo not shown) [XXIV]", "values": [{"measurement": "EC50", "setting": "[1]", "value": 8.91, "unit": "µM"}, {"measurement": "EC50", "setting": "[2]; Homo sapiens, Huh-7, 48 h", "value": 0.25, "unit": "µM"}, {"measurement": "EC50", "setting": "[3]", "value": 2.55, "unit": "µM"}, {"measurement": "EC50", "setting": "[4]", "value": 10.3, "unit": "µM"}, {"measurement": "EC50", "setting": "[5]", "value": 16.6, "unit": "µM"}]}
{"smiles": "O=C(CC1C=Nc2ccccc21)N1CCC(c2nc(C(=O)N3CCN(c4ccc(Cl)c(Cl)c4)CC3)cs2)CC1", "note": "(stereo not shown) [LI]", "values": [{"measurement": "EC50", "setting": "[2]; Homo sapiens, Huh-7, 48 h", "value": 4.9, "unit": "µM"}]}
{"smiles": "CS(=O)(=O)c1ccc(CNC(=O)c2csc(C3CCN(C(=O)CC4C=Nc5ccccc54)CC3)n2)cc1", "note": "(stereo not shown) [XIX]", "values": [{"measurement": "EC50", "setting": "[2]; Homo sapiens, Huh-7, 48 h", "value": 8.5, "unit": "µM"}]}
{"smiles": "O=C(NC1CCN(Cc2ccccc2)C1)c1csc(C2CCN(C(=O)CC3C=Nc4ccccc43)CC2)n1", "note": "(stereo not shown) [XXIX]", "values": [{"measurement": "EC50", "setting": "[2]; Homo sapiens, Huh-7, 48 h", "value": 2.7, "unit": "µM"}]}
{"smiles": "CC(=O)c1cc2cc(NC(=O)c3csc(C4CCN(C(=O)CC5C=Nc6ccccc65)CC4)n3)ccc2o1", "note": "(stereo not shown) [XXXII]", "values": [{"measurement": "EC50", "setting": "[2]; Homo sapiens, Huh-7, 48 h", "value": 3.08, "unit": "µM"}]}
{"smiles": "Cc1nc(C)c(C(=O)N2CCC(c3nc(C(=O)Nc4cc(-c5ccco5)n[nH]4)cs3)CC2)s1", "note": "[XLVIII]", "values": [{"measurement": "EC50", "setting": "[2]; Homo sapiens, Huh-7, 48 h", "value": 13.9, "unit": "µM"}]}
{"smiles": "C=CCSc1ncccc1C(=O)N1CCC(c2nc(C(=O)Nc3cc(-c4ccccc4)nn3C)cs2)CC1", "note": "[XXXI]", "values": [{"measurement": "EC50", "setting": "[1]", "value": 20.5, "unit": "µM"}, {"measurement": "EC50", "setting": "[2]; Homo sapiens, Huh-7, 48 h", "value": 0.5, "unit": "µM"}, {"measurement": "EC50", "setting": "[3]", "value": 3.58, "unit": "µM"}, {"measurement": "EC50", "setting": "[4]", "value": 10.4, "unit": "µM"}, {"measurement": "EC50", "setting": "[5]", "value": 10.2, "unit": "µM"}]}
{"smiles": "O=C(Nc1ccc2ncccc2c1)c1csc(C2CCN(C(=O)CC3C=Nc4ccccc43)CC2)n1", "note": "(stereo not shown) [III]", "values": [{"measurement": "EC50", "setting": "[1]", "value": 3.95, "unit": "µM"}, {"measurement": "EC50", "setting": "[2]; Homo sapiens, Huh-7, 48 h", "value": 1.39, "unit": "µM"}, {"measurement": "EC50", "setting": "[3]", "value": 1.99, "unit": "µM"}, {"measurement": "EC50", "setting": "[4]", "value": 9.3, "unit": "µM"}, {"measurement": "EC50", "setting": "[5]", "value": 7.07, "unit": "µM"}]}
{"smiles": "COc1cccc(CCNC(=O)c2csc(C3CCN(C(=O)CC4C=Nc5ccccc54)CC3)n2)c1", "note": "(stereo not shown) [XXXVIII]", "values": [{"measurement": "EC50", "setting": "[2]; Homo sapiens, Huh-7, 48 h", "value": 20.6, "unit": "µM"}]}
{"smiles": "Cc1nc(C)c(C(=O)N2CCC(c3nc(C(=O)Nc4cc(-c5cccs5)nn4C)cs3)CC2)s1", "note": "[XXXV]", "values": [{"measurement": "EC50", "setting": "[2]; Homo sapiens, Huh-7, 48 h", "value": 3.5, "unit": "µM"}]}
{"smiles": "Cc1nc(C)c(C(=O)N2CCC(c3nc(C(=O)Nc4cc(-c5ccccc5)nn4C)cs3)CC2)s1", "note": "[XXII]", "values": [{"measurement": "EC50", "setting": "[2]; Huh-7", "value": 5.4, "unit": "µM"}]}
{"smiles": "C#CCOC(=O)N1CCC(c2nc(C(=O)Nc3[nH]nc(C)c3-c3ccccc3)cs2)CC1", "note": "[L]", "values": [{"measurement": "EC50", "setting": "[2]; Homo sapiens, Huh-7, 48 h", "value": 5.4, "unit": "µM"}]}
{"smiles": "O=C(Nc1cccc(-c2cnco2)c1)c1csc(C2CCN(C(=O)Cc3c[nH]c4ccccc34)CC2)n1", "note": "[IX]", "values": [{"measurement": "EC50", "setting": "[2]; Huh-7", "value": 12.1, "unit": "µM"}]}
{"smiles": "O=C(Nc1cc(-c2ccccc2)n[nH]1)c1csc(C2CCN(C(=O)c3cc4ccccc4o3)CC2)n1", "note": "[XLIV]", "values": [{"measurement": "EC50", "setting": "[2]; Homo sapiens, Huh-7, 48 h", "value": 2.53, "unit": "µM"}]}
{"smiles": "C#CCOC(=O)N1CCC(c2nc(C(=O)Nc3cc(-c4ccccc4)n[nH]3)cs2)CC1", "note": "[XXVIII]", "values": [{"measurement": "EC50", "setting": "[2]; Huh-7", "value": 2.27, "unit": "µM"}]}
{"smiles": "Cc1ccc(OCC(=O)N2CCC(c3nc(C(=O)Nc4nccs4)cs3)CC2)cc1C", "note": "[XXV]", "values": [{"measurement": "EC50", "setting": "[2]; Homo sapiens, Huh-7, 48 h", "value": 5.8, "unit": "µM"}]}
{"smiles": "CC(C)(Cc1ccc(F)cc1)NC(=O)c1csc(C2CCN(C(=O)CC3C=Nc4ccccc43)CC2)n1", "note": "(stereo not shown) [VI]", "values": [{"measurement": "EC50", "setting": "[1]", "value": 13.5, "unit": "µM"}, {"measurement": "EC50", "setting": "[2]; Homo sapiens, Huh-7, 48 h", "value": 4.81, "unit": "µM"}, {"measurement": "EC50", "setting": "[3]", "value": 11.2, "unit": "µM"}, {"measurement": "EC50", "setting": "[4]", "value": 19.2, "unit": "µM"}, {"measurement": "EC50", "setting": "[5]", "value": 10.4, "unit": "µM"}]}
{"smiles": "Cc1cc(Cl)ccc1CNC(=O)c1csc(C2CCN(C(=O)CC3C=Nc4ccccc43)CC2)n1", "note": "(stereo not shown) [XXXVI]", "values": [{"measurement": "EC50", "setting": "[2]; Homo sapiens, Huh-7, 48 h", "value": 3.95, "unit": "µM"}]}
{"smiles": "C#CC1(NC(=O)c2csc(C3CCN(C(=O)CC4C=Nc5ccccc54)CC3)n2)CCCCC1", "note": "(stereo not shown) [LVII]", "values": [{"measurement": "EC50", "setting": "[2]; Homo sapiens, Huh-7, 48 h", "value": 5.1, "unit": "µM"}]}
{"smiles": "COc1ccccc1C(=O)NNC(=O)c1csc(C2CCN(C(=O)CC3C=Nc4ccccc43)CC2)n1", "note": "(stereo not shown) [XXIII]", "values": [{"measurement": "EC50", "setting": "[2]; Homo sapiens, Huh-7, 48 h", "value": 16.7, "unit": "µM"}]}
{"smiles": "Cc1csc(NC(=O)c2csc(C3CCN(C(=O)CC4C=Nc5ccccc54)CC3)n2)c1C(N)=O", "note": "(stereo not shown) [XIV]", "values": [{"measurement": "EC50", "setting": "[2]; Homo sapiens, Huh-7, 48 h", "value": 12.9, "unit": "µM"}]}
{"smiles": "COc1ccc(CN2CCN(C(=O)c3csc(C4CCN(C(=O)CC5C=Nc6ccccc65)CC4)n3)CC2)cc1", "note": "(stereo not shown) [XXVII]", "values": [{"measurement": "EC50", "setting": "[2]; Homo sapiens, Huh-7, 48 h", "value": 35.6, "unit": "µM"}]}
{"smiles": "Cn1nc(-c2cccs2)cc1NC(=O)c1csc(C2CCN(C(=O)c3ccccc3C(F)(F)F)CC2)n1", "note": "[XVIII]", "values": [{"measurement": "EC50", "setting": "[2]; Huh-7", "value": 13.4, "unit": "µM"}]}
{"smiles": "Cc1ccc(NC(=O)c2csc(C3CCN(C(=O)CC4C=Nc5ccccc54)CC3)n2)c(F)c1", "note": "(stereo not shown) [XLVI]", "values": [{"measurement": "EC50", "setting": "[2]; Homo sapiens, Huh-7, 48 h", "value": 4, "unit": "µM"}]}
